{"source": "paper PMC6767236", "about": "“Selective Cannabinoid 2 Receptor Agonists as Potential Therapeutic Drugs for the Treatment of Endotoxin-Induced Uveitis” (Molecules, 2019)", "key": {"mouse CB2R": {"molecular_target": "mouse CB2R (Mus musculus, UniProt P47936)", "sequence (P47936 whole entry, the tested form may be a part)": "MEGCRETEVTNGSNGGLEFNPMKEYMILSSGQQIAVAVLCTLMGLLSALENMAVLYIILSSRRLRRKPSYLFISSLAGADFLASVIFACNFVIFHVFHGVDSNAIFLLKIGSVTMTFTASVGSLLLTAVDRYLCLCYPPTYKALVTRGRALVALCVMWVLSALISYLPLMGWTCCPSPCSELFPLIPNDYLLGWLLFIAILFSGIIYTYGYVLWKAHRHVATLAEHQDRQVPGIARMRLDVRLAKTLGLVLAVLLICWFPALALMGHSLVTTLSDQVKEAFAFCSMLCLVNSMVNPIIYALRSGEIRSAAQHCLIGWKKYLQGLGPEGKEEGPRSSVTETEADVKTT", "parameters": "bgal (beta-galactosidase fragment of the PathHunter system, named only in the cell line's name); host or cells: CHO-K1 (CHOK1mCB2_bgal)", "conditions": "[3H]-CP55940 displacement; * previously published; cited from earlier work"}, "[1]": {"test": "Kinetic lyophilization solubility assay", "type": "physicochemical", "conditions": "0.05 M phosphate buffer, aqueous buffer, thermodynamic from solid; phosphate buffer pH 6.5", "description": "The X-ray structure of CB2R complexed with the antagonist AM10257 (5zty) was used as a template to dock CB2R ligands. The docking experiments were performed with the software GOLD ([…]) with default settings. The best 10 docking poses for each compound were energy-minimized within the binding pocket using MOE ( molecular operating environment ver. 2014.09, Chemical Computing Group, Montreal, Canada) and examined visually to select the most reasonable docking mode with respect to molecular interactions and internal conformational strain. The final selection was based on checking consiste ncy with the available structure –activity relationship information.\nKinetic Lyophilization Solubility Assay\nThe solubility of a test compound in phosphate buffer at pH 6.5 from evaporated DMSO stock solution is measured over time, resulting in the kinetic solubility of the compound. Samples were prepared in duplicate from 10 mM DMSO stock solutions. […] The filtrate and its 1 :10 dilution were analyzed by direct UV measurement or by HPLC -UV. […]\nApproximately 8.6 mg test compound per milliliter solvent/vehicle was stirred in HPLC vials (9 × 12 × 32 mm, Waters) at 350 rpm for 15 h. […] Addition of solid material was repeated up to 96 h or until residual solid particles could be detected. […] The filtrates were diluted in ethanol and analyzed for content by UPLC. […]"}, "neutrophils from WT mice": {"tested_on": "neutrophils from WT mice", "test": "Transwell neutrophil migration assay towards CXCL2, WT neutrophils", "type": "cell-based, mouse", "conditions": "for CXCL2-induced neutrophil migration: WT neutrophils pre-treated 30 min, 10 nM CXCL2, RO6851228 at 0.01–1.0 μM", "description": "As described previously, mouse neutrophils were isolated from the bone marrow of mice. Mice were euthanized, femur and tibia were dissected and flushed with ice-cold 1× Hanks balanced salt solution (HBSS; supplemented with […], pH7.5, and 0.5 mM EDTA; Invitrogen) through a sterile filter (70 μm). The suspension was centrifuged at 300× g for 12 min at 4 °C. EasySep™ neutrophil enrichment kit ([…] Technologies Inc., Vancouver, BC, Canada) was used to isolate neutrophils according to the manufacturer’s instructions. The isolated neutrophils were then washed once and the pelleted cells were suspended in RPMI (Invitrogen) containing 1% heat-inactivated fetal bovine serum (FBS, Invitrogen) and used immediately for neutrophil migration experiments or processed for adoptive transfer. The murine neutrophil isolation protocol routinely yields cell suspensions that are >95% pure and viable, as determined by cresyl violet and trypan blue exclusion, respectively.\nNeutrophil migration assays were performed using a Transwell migration assay. Isolated neutrophils (1 × 10^5 cells/100 μL) from WT or CB2R^-/- mice were incubated with vehicle (0.01% DMSO), or various concentrations of RO8671304 or RO6851228 at 37 °C, 5% CO2 for 30 min. Cells were then loaded into the upper chamber of 3 μm Transwell inserts (Corning Life Sciences, Corning, NY, USA) coated with 5% FBS. Transwells were placed in 24-well plates containing RPMI (1% FBS) alone or 10^−8 M chemokine C–X–C motif ligand 2 (CXCL2)/[…] (Peprotech, Rocky Hill, NJ, USA). Plates were incubated for 1 h at 37 °C, 5% CO2. To determine the number of neutrophils that migrated from the top to the bottom chamber, the filter was removed and neutrophils in the lower chamber gently pipetted to evenly distribute and sink to the bottom of the pate. An Olympus inverted bright-field microscope with an Infinity 3 camera (Lumenera, Ottawa, ON, Canada) was used to photograph 12 random fields (10× magnification) of each well. The number of migrated neutrophils was then determined using ImageJ. […]"}}}
{"smiles": "CNC(=O)[C@@H](NC(=O)c1cc(OCC2(C)COC2)c(C2CC2)cn1)C(C)(C)C", "note": "[RO6851228, 5-Cyclopropyl-N-[(2S)-3,3-dimethyl-1-(methylamino)-1-oxobutan-2-yl]-4-[(3-methyloxetan-3-yl)methoxy]pyridine-2-carboxamide]", "values": [{"measurement": "Ki", "setting": "mouse CB2R", "result": 1, "unit": "nM"}, {"measurement": "solubility kinetic at 15 h", "setting": "[1]", "result": "174 ± 47", "unit": "µg/mL"}, {"measurement": "CXCL2-induced neutrophil migration", "setting": "neutrophils from WT mice", "result": "did not affect CXCL2-induced neutrophil migration"}]}
{"smiles": "Cc1nc([C@](C)(CC2CC2)NC(=O)c2cc(OCC(F)(F)F)c(C3CC3)cn2)no1", "note": "[RO6871085, 5-Cyclopropyl-N-[(2S)-1-cyclopropyl-2-(5-methyl-1,2,4-oxadiazol-3-yl)propan-2-yl]-4-(2,2,2-trifluoroethoxy)pyridine-2-carboxamide]", "values": [{"measurement": "Ki", "setting": "mouse CB2R", "result": 6, "unit": "nM"}, {"measurement": "solubility kinetic at 15 h", "setting": "[1]", "result": "4.2 ± 0.1", "unit": "µg/mL"}]}
{"smiles": "CC(C)(C)c1nc(N2CC[C@H](O)C2)c2nnn(Cc3nnnn3C3CC3)c2n1", "note": "[RO6871304, (3S)-1-{5-tert-butyl-3-[(1-cyclopropyl-1H-tetrazol-5-yl)methyl]-3H-[1,2, 3]triazolo[4,5-d]pyrimidin-7-yl}pyrrolidin-3-ol]", "values": [{"measurement": "IC50", "setting": "neutrophils from WT mice; Neutrophil, towards 10 nM CXCL2, WT mouse neutrophils, read-out: IC50 for inhibition of neutrophil migration", "result": 6.6, "unit": "nM"}, {"measurement": "CXCL2-induced neutrophil migration", "setting": "neutrophils from WT mice", "result": "inhibited neutrophil migration towards CXCL2 in a dose-dependent fashion"}]}
